For this assay, the target named is T1, GPR84 (Homo sapiens, UniProt Q9NQS5).
T1 construct: expressed in transfected cells
T1 sequence (Q9NQS5 whole entry): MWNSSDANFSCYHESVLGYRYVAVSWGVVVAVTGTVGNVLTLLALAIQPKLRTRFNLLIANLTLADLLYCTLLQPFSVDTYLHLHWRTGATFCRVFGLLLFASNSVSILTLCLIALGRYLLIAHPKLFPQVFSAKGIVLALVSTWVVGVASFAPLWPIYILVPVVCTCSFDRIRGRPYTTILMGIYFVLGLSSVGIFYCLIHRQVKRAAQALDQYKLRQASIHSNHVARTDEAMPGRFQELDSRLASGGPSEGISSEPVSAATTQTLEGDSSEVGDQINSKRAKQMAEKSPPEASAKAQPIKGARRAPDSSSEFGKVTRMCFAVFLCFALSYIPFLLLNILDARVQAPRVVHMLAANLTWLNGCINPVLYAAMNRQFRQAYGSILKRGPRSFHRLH
The assay is described as follows: GPR84 [35S]GTPγS binding assay. It counts as biochemical. The note with it: 3,3′-diindolylmethane at EC80; membranes from stable cell line over expressing GPR84. How it is done: The following assay can be used for determination of GPR84 activation. The [^35S]GTPγS binding assay measures the level of G protein activation following agonist occupation of a GPCR, by determining the binding of the non-hydrolysable analog [^35S]GTPγS to Gα subunits.
The assay is performed in a 96-well plate where the following reagents are added. First 50 μL compound is added into the assay plate, followed by addition of 20 μL 3,3′-diindolylmethane at EC80 concentration (concentration which gives 80% of the activity of GPR84). Then, 30 μL of a mixture consisting of membranes-GTPγS-SpA beads is added [mixture consists of 20 μg/well membranes derived from stable cell line over expressing GPR84 (membranes are pre-incubated with 0.1 μM GDP for 15 min at 4° C.), 0.1 nM [^35S]GTPγS (Perkin Elmer, NEG030) and 0.5 mg/well PVT-WGA SpA beads (Perkin Elmer, RPNQ0001)]. All components are diluted in assay buffer containing 20 mM Tris pH 7.5; 5 mM MgCl2; 250 mM NaCl; 0.05% BSA; 75 μg/mL saponin. After an incubation of 90 min at room temperature, 20 μL CsCl2 0.8 M (MP Biomedicals, 02150589) is added, followed by centrifugation at 2000 rpm during 20 min. Plates are read on a topcount reader (perkin elmer) immediately after centrifugation (readout time, 1 min/well).
(GTPγS is a poorly hydrolysed GTP analogue; its binding reports G protein activation.)
`Cc1c2n(c(OC[C@@H]3COCCO3)cc1=O)CCc1cc(N3CCC(c4ccc(F)cc4)CC3)ccc1-2` [Compound 117, 4-[[(2S)-1,4-dioxan-2-yl]methoxy]-9-[4-(4-fluorophenyl)-1-piperidyl]-1-methyl-6,7-dihydrobenzo[a]quinolizin-2-one]: the IC50 lay within 0.01 to 100 nM. Take `Cc1c2n(c(OC[C@@H]3COCCO3)cc1=O)CCc1cc(OC3CN(C(=O)C4CC4)C3)ccc1-2` [Compound 118, 9-[1-(cyclopropanecarbonyl)azetidin-3-yl]oxy-4-[[(2S)-1,4-dioxan-2-yl]methoxy]-1-methyl-6,7-dihydrobenzo[a]quinolizin-2-one]: the 50% inhibitory concentration (IC50) was 100 to 500 nM. In turn, `Cc1c2n(c(OC[C@@H]3COCCO3)cc1=O)CCc1cc(OC3CN(C(=O)C(F)(F)F)C3)ccc1-2` [Compound 119, 4-[[(2)S-1,4-dioxan-2-yl]methoxy]-1-methyl-9-[1-(2,2,2-trifluoroacetyl)azetidin-3-yl]oxy-6,7-dihydrobenzo[a]quinolizin-2-one] displayed a half-inhibitory concentration (IC50) of 100 to 500 nM.

As for `CCOC(=O)N1CC(Oc2ccc3c(c2)CCn2c(OC[C@@H]4COCCO4)cc(=O)c(C)c2-3)C1` [Compound 120, ethyl 3-[[4-[[(2S)-1,4-dioxan-2-yl]methoxy]-1-methyl-2-oxo-6,7-dihydrobenzo[a]quinolizin-9-yl]oxy]azetidine-1-carboxylate], the IC50 was 0.01 to 100 nM.

As to `Cc1c2n(c(OC[C@@H]3COCCO3)cc1=O)CCc1cc(N3CCC(Oc4cccnc4)CC3)ccc1-2` [Compound 121, 4-[[(2S)-1,4-dioxan-2-yl]methoxy]-1-methyl-9-[4-(3-pyridyloxy)-1-piperidyl]-6,7-dihydrobenzo[a]quinolizin-2-one], the IC50 was 0.01 to 100 nM. In turn, `Cc1c2n(c(OC[C@@H]3COCCO3)cc1=O)CCc1cc(N3CCC(C#N)CC3)ccc1-2` [Compound 122, 1-[4-[[(2)S-1,4-dioxan-2-yl]methoxy]-1-methyl-2-oxo-6,7-dihydrobenzo[a]quinolizin-9-yl]piperidine-4-carbonitrile] registered an IC50 of 0.01 to 100 nM. As to `Cc1c2n(c(OC[C@@H]3COCCO3)cc1=O)CCc1cc(N3CCCC(F)(F)C3)ccc1-2` [Compound 123, 9-(3,3-difluoro-1-piperidyl)-4-[[(2S)-1,4-dioxan-2-yl]methoxy]-1-methyl-6,7-dihydrobenzo[a]quinolizin-2-one], the half-maximal inhibitory concentration (IC50) is 0.01 to 100 nM.

Take `Cc1c2n(c(OC[C@@H]3COCCO3)cc1=O)CCc1cc(C(C)C)ccc1-2` [Compound 124, 4-[[(2S)-1,4-dioxan-2-yl]methoxy]-9-isopropyl-1-methyl-6,7-dihydrobenzo[a]quinolizin-2-one]: the IC50 lay in the range of 0.01 to 100 nM. For the compound `[2H]c1c(OC[C@@H]2COCCO2)n2c(c(C)c1=O)-c1ccc(OCC(F)(F)F)cc1CC2` [Compound 125, 3-deuterio-4-[[(2S)-1,4-dioxan-2-yl]methoxy]-1-methyl-9-(2,2,2-trifluoroethoxy)-6,7-dihydrobenzo[a]quinolizin-2-one], the concentration for half-maximal inhibition (IC50) lay within 0.01 to 100 nM. On to `[2H]c1c(OC[C@@H]2COCCO2)n2c(c(C)c1=O)-c1ccc(OC([2H])([2H])C([2H])([2H])F)cc1CC2` [Compound 126, 3-deuterio-4-[[(2S)-1,4-dioxan-2-yl]methoxy]-1-methyl-9-(1,1,2,2-tetradeuterio-2-fluoro-ethoxy)-6,7-dihydrobenzo[a]quinolizin-2-one], for which the IC50 was in the range of 0.01 to 100 nM.

In turn, `Cc1c2n(c(OC[C@@H]3COCCO3)cc1=O)CCc1cc(OC3CCN(C(=O)OC(C)(C)C)C3)ccc1-2` (stereo partly drawn) [Compound 127, tert-butyl 3-[[4-[[(2S)-1,4-dioxan-2-yl]methoxy]-1-methyl-2-oxo-6,7-dihydrobenzo[a]quinolizin-9-yl]oxy]pyrrolidine-1-carboxylate] displayed an IC50 of 0.01 to 100 nM.

`Cc1c2n(c(OC[C@@H]3COCCO3)cc1=O)CCc1cc(OC3CCN(C(=O)OC(C)(C)C)CC3)ccc1-2` [Compound 128, tert-butyl 4-[[4-[[(2S)-1,4-dioxan-2-yl]methoxy]-1-methyl-2-oxo-6,7-dihydrobenzo[a]quinolizin-9-yl]oxy]piperidine-1-carboxylate] displayed a concentration for half-maximal inhibition (IC50) of 0.01 to 100 nM. Turning to `Cc1c2n(c(OC[C@@H]3COCCO3)cc1=O)CCc1cc(N(C)CCC(F)(F)F)ccc1-2` [Compound 129, 4-[[(2S)-1,4-dioxan-2-yl]methoxy]-1-methyl-9-[methyl(3,3,3-trifluoropropyl)amino]-6,7-dihydrobenzo[a]quinolizin-2-one], the IC50 fell in the range of 0.01 to 100 nM.

`Cc1c2n(c(OC[C@@H]3COCCO3)cc1=O)CCc1cc(N3CCCC3)ccc1-2` [Compound 130, 4-[[(2S)-1,4-dioxan-2-yl]methoxy]-1-methyl-9-pyrrolidin-1-yl-6,7-dihydrobenzo[a]quinolizin-2-one] displayed an IC50 of 0.01 to 100 nM.

`Cc1c2n(c(OC[C@@H]3COCCO3)cc1=O)CCc1cc(N3CCC(F)(F)C3)ccc1-2` [Compound 131, 9-(3,3-difluoropyrrolidin-1-yl)-4-[[(2S)-1,4-dioxan-2-yl]methoxy]-1-methyl-6,7-dihydrobenzo[a]quinolizin-2-one] showed an IC50 of 0.01 to 100 nM. For `Cc1c2n(c(OC[C@@H]3COCCO3)cc1=O)CCc1cc(N3CC(C(F)(F)F)C3)ccc1-2` [Compound 132, 4-[[(2S)-1,4-dioxan-2-yl]methoxy]-1-methyl-9-[3-(trifluoromethyl)azetidin-1-yl]-6,7-dihydrobenzo[a]quinolizin-2-one] the value was 0.01 to 100 nM; for `Cc1c2n(c(OC[C@@H]3COCCO3)cc1=O)CCc1cc(N3CC=C(C(F)(F)F)CC3)ccc1-2` [Compound 133, 4-[[(2S)-1,4-dioxan-2-yl]methoxy]-1-methyl-9-[4-(trifluoromethyl)-3,6-dihydro-2H-pyridin-1-yl]-6,7-dihydrobenzo[a]quinolizin-2-one], 0.01 to 100 nM. Turning to `Cc1c2n(c(OC[C@@H]3COCCO3)cc1=O)CCc1cc(N3CCC[C@H]3C)ccc1-2` [Compound 134, 4-[[(2S)-1,4-dioxan-2-yl]methoxy]-1-methyl-9-[(2R)-2-methylpyrrolidin-1-yl]-6,7-dihydrobenzo[a]quinolizin-2-one], the IC50 is 0.01 to 100 nM.

With `Cc1c2n(c(OC[C@@H]3COCCO3)cc1=O)CCc1cc(N3CCCC(F)C3)ccc1-2` (stereo partly drawn) [Compound 135, 4-[[(2S)-1,4-dioxan-2-yl]methoxy]-9-(3-fluoro-1-piperidyl)-1-methyl-6,7-dihydrobenzo[a]quinolizin-2-one], the IC50 lay in the range of 0.01 to 100 nM. In turn, `Cc1c2n(c(OC[C@@H]3COCCO3)cc1=O)CCc1cc(-n3c4ccccc4c4ccccc43)ccc1-2` [Compound 136, 9-carbazol-9-yl-4-[[(2S)-1,4-dioxan-2-yl]methoxy]-1-methyl-6,7-dihydrobenzo[a]quinolizin-2-one] showed a half-maximal inhibitory concentration (IC50) of 0.01 to 100 nM. Turning to `Cc1c2n(c(OC[C@@H]3COCCO3)cc1=O)CCc1cc(N3CC(C)CC(C)C3)ccc1-2` (stereo partly drawn) [Compound 137, 9-(3,5-dimethyl-1-piperidyl)-4-[[(2S)-1,4-dioxan-2-yl]methoxy]-1-methyl-6,7-dihydrobenzo[a]quinolizin-2-one], the IC50 lay in the range of 0.01 to 100 nM. For `Cc1c2n(c(OC[C@@H]3COCCO3)cc1=O)CCc1cc(N3CCC(C)(C)C3)ccc1-2` [Compound 138, 9-(3,3-dimethylpyrrolidin-1-yl)-4-[[(2S)-1,4-dioxan-2-yl]methoxy]-1-methyl-6,7-dihydrobenzo[a]quinolizin-2-one] the value was 0.01 to 100 nM. Turning to `Cc1c2n(c(OC[C@@H]3COCCO3)cc1=O)CCc1cc(N3CCC(C)(C)CC3)ccc1-2` [Compound 139, 9-(4,4-dimethyl-1-piperidyl)-4-[[(2S)-1,4-dioxan-2-yl]methoxy]-1-methyl-6,7-dihydrobenzo[a]quinolizin-2-one], the IC50 is 0.01 to 100 nM. Regarding `Cc1c2n(c(OC[C@@H]3COCCO3)cc1=O)CCc1cc(N3CCC(C(F)(F)F)CC3)ccc1-2` [Compound 140, 4-[[(2S)-1,4-dioxan-2-yl]methoxy]-1-methyl-9-[4-(trifluoromethyl)-1-piperidyl]-6,7-dihydrobenzo[a]quinolizin-2-one], the IC50 lay in the range of 0.01 to 100 nM. For `Cc1c2n(c(OC[C@@H]3COCCO3)cc1=O)CCc1cc(N3CCC(C)CC3)ccc1-2` [Compound 141, 4-[[(2S)-1,4-dioxan-2-yl]methoxy]-1-methyl-9-(4-methyl-1-piperidyl)-6,7-dihydrobenzo[a]quinolizin-2-one] the value was 0.01 to 100 nM; for `Cc1c2n(c(OC[C@@H]3COCCO3)cc1=O)CCc1cc(NCC(F)(F)F)ccc1-2` [Compound 142, 4-[[(2S)-1,4-dioxan-2-yl]methoxy]-1-methyl-9-(2,2,2-trifluoroethylamino)-6,7-dihydrobenzo[a]quinolizin-2-one], 0.01 to 100 nM; for `Cc1c2n(c(OC[C@@H]3COCCO3)cc1=O)CCc1cc(N3CCCCC3C)ccc1-2` (stereo partly drawn) [Compound 143, 4-[[(2S)-1,4-dioxan-2-yl]methoxy]-1-methyl-9-(2-methyl-1-piperidyl)-6,7-dihydrobenzo[a]quinolizin-2-one], 0.01 to 100 nM. `Cc1c2n(c(OC[C@@H]3COCCO3)cc1=O)CCc1cc(OC3CCN(C(=O)C4CC4)C3)ccc1-2` (stereo partly drawn) [Compound 144, 9-[1-(cyclopropanecarbonyl)pyrrolidin-3-yl]oxy-4-[[(2S)-1,4-dioxan-2-yl]methoxy]-1-methyl-6,7-dihydrobenzo[a]quinolizin-2-one] gave a half-maximal inhibitory concentration (IC50) of 100 to 500 nM.

The term IC50 denotes the concentration needed to halve the response being measured.

The values are drawn from US10568879B2 (GALAPAGOS NV, priority 2015, dated 2020).
